The source of these data is patent US7282608B2, “Inhibitors of histone deacetylase” (Methylgene, Inc., priority 2002, dated 2007).

Bounds are passed on as bounds.

Assay [1] concerns HCT116 cells. Kind of assay: MTT assay. It is filed as cell-based. The settings on record: Homo sapiens, HCT-116, 72 hours. On the procedure: HCT116 cells (2000/well) were plated into 96-well tissue culture plates one day before compound treatment. Compounds at various concentrations were added to the cells. The cells were incubated for 72 hours at 37° C. in 5% CO2 incubator. MTT (3-[4,5-dimethylthiazol-2-yl]-2,5 diphenyl tetrazolium bromide, Sigma) was added at a final concentration of 0.5 mg/ml and incubated with the cells for 4 hours before one volume of solubilization buffer (50% N,N-dimethylformamide, 20% SDS, pH 4.7) was added onto the cultured cells. After overnight incubation, solubilized dye was quantified by colorimetric reading at […] using a reference at […] using an MR700 plate reader (Dynatech Laboratories Inc.). OD values were converted to cell numbers according to a standard growth curve of the relevant cell line. The concentration which reduces cell numbers to 50% of that of solvent treated cells is determined as MTT IC50. IC50 values for representative compounds are presented in the fourth column of Tables 7–10.
In general terms: Tetrazolium dyes change colour on reduction, which living cells bring about.

Assay [2] concerns the target Human HDAC-1 (Homo sapiens, UniProt Q13547). Kind of assay: Human HDAC-1 Assay 2: Boc-Lys(Ac)-AMC fluorescence assay. The following applies: Assay 2, bracketed [ ] data; Boc-Lys(Ac)-AMC substrate. It is filed as biochemical. How it is done:
In the alternative, the following protocol was used to assay the compounds of the invention. In the assay, the buffer used was 25 mM HEPES, pH 8.0, 137 mM NaCl, 2.7 mM KCl, 1 mM MgCl2 and the subtrate was Boc-Lys(Ac)-AMC in a 50 mM stock solution in DMSO. The enzyme stock solution was 4.08 μg/mL in buffer.
The compounds were pre-incubated (2 μl in DMSO diluted to 13 μl in buffer for transfer to assay plate) with enzyme (20 μl of 4.08 μg/ml) for 10 minutes at room temperature (35 μl pre-incubation volume). The mixture was pre-incubated for 5 minutes at room temperature. The reaction was started by bringing the temperature to 37° C. and adding […] substrate. Total reaction volume was 50 μl. The reaction was stopped after 20 minutes by addition of 50 μl developer, prepared as directed by Biomol (Fluor-de-Lys developer, Cat. # KI-105). A plate was incubated in the dark for 10 minutes at room temperature before reading (λEX=360 nm, λEx=470 nm, Cutoff filter at 435 nm).
IC50 values for representative compounds assayed using this procedure are presented in the third column of Table 9 (bracketed [ ] data).

In assay [3] the test system is acetylated histone H-4 in T24 human bladder cancer cells. Nature of the assay: Histone H4 acetylation in whole cells by immunoblots. It is filed as cell-based. The following applies: 16 h, immunoblot densitometry, read-out: H4 Ac (T24) EC50. How it is done:
T24 human bladder cancer cells growing in culture were incubated with HDAC inhibitors for 16 h. Histones were extracted from the cells after the culture period as described by M. Yoshida et al. (J. Biol. Chem. 265(28): 17174–17179 (1990)). […] of total histone protein was loaded onto SDS/PAGE and transferred to nitrocellulose membranes. Membranes were probed with polyclonal antibodies specific for acetylated histone H-4 (Upstate Biotech Inc.), followed by horse radish peroxidase conjugated secondary antibodies (Sigma). Enhanced Chemiluminescence (ECL) (Amersham) detection was performed using Kodak films (Eastman Kodak). Acetylated H-4 signal was quantified by densitometry. Representative data are presented in the fifth column of Table 7–10. Data are presented as the concentration effective for […] the acetylated H-4 signal by 50% (EC50).

Assay [4] addresses T1, cloned recombinant human HDAC-1 (Homo sapiens, UniProt Q13547).
T1 construct: made in house; host or cells: Baculovirus insect cell expression system
Kind of assay: Human HDAC-1 Assay 1: [3H]-acetylated histone deacetylase assay. Type of assay: biochemical. The settings on record: Assay 1, unbracketed data; [3H]-acetylated histone substrate, 10 min at 37° C. How it is done:
HDAC inhibitors were screened against a cloned recombinant human HDAC-1 enzyme expressed and purified from a Baculovirus insect cell expression system. For deacetylase assays, 20,000 cpm of the [^3H]-metabolically labeled acetylated histone substrate (M. Yoshida et al., J. Biol. Chem. 265(28): 17174–17179 (1990)) was incubated with 30 μg of the cloned recombinant hHDAC-1 for 10 minutes at 37° C. The reaction was stopped by adding acetic acid (0.04 M, final concentration) and HCl (250 mM, final concentration). […] For inhibition studies, the enzyme was preincubated with compounds at 4° C. for 30 minutes prior to initiation of the enzymatic assay. IC50 values for HDAC enzyme inhibitors were determined by performing dose response curves with individual compounds and determining the concentration of inhibitor producing fifty percent of the maximal inhibition. IC50 values for representative compounds assayed using this procedure are presented in the third column of Tables 7–10 (excepting bracketed data).

T1 sequence (Q13547 whole entry): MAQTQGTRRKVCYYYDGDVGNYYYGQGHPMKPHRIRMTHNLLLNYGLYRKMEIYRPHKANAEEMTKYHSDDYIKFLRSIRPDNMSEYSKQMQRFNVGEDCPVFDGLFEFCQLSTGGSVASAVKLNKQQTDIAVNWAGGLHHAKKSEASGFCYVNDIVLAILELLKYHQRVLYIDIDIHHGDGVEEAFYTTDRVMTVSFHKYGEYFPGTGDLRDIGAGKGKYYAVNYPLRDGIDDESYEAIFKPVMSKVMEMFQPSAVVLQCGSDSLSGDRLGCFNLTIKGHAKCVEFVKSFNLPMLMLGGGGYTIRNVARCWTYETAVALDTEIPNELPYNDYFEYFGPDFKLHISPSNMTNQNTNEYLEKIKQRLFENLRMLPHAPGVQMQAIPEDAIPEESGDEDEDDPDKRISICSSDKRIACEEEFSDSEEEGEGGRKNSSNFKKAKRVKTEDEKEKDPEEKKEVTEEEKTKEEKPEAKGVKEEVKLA
Human HDAC-1, sequence (Q13547 whole entry): as above

Broadly, the IC50 is the concentration that inhibits the measured activity by half. In the case of `Nc1ccccc1NC(=O)c1ccc(/C=C/CNC2Cc3ccccc3C2)cc1` [XXXe, N-(2-Amino-phenyl)-4-[3-(indan-2-ylamino)-propenyl]-benzamide], the IC50 turned out to be 2 µM in assay [1] and 0.79 µM in assay [2].

In general, EC50 refers to the midpoint of the concentration-response curve. On to `Nc1ccccc1NC(=O)c1ccc(/C=C/CNc2nc3ccccc3s2)cc1` [XVc, N-(2-Amino-phenyl)-4-[3-(benzothiazol-2-ylamino)-propenyl]-benzamide], for which the IC50 in assay [1] was 1 µM; in assay [4], 0.8 µM. The concentration for a half-maximal effect (EC50) in assay [3] is under 1 µM.

As to `COc1ccccc1C(=O)/C=C/c1ccc(C(=O)Nc2ccccc2N)cc1` [XXIVe, N-(2-Amino-phenyl)-4-[3-(2-methoxy-phenyl)-3-oxo-propenyl]-benzamide], the half-inhibitory concentration (IC50) is 0.8 µM in assay [1] and 3 µM in assay [4]. In assay [3], the EC50 was 5 µM.

In the case of `Nc1ccccc1NC(=O)c1ccc(/C=C/C(=O)NCCOc2ccccc2)cc1` [Vd, N-(2-Amino-phenyl)-4-[2-(2-phenoxy-ethylcarbamoyl)-vinyl]-benzamide], the values for the IC50 in assay [1] and in assay [4] were 0.4 µM and 1 µM, respectively. Besides, the EC50 in assay [3] was determined as 1 µM.

With `Nc1ccccc1NC(=O)c1ccc(C(=O)/C=C/c2cccnc2)cc1` [Ib, N-(2-Amino-phenyl)-4-(3-pyridin-3-yl-acryloyl)-benzamide], the IC50 in assay [1] turned out to be 0.9 µM; in assay [4] it was 2 µM. For the same compound, the EC50 in assay [3] is 5 µM.

As to `Nc1ccccc1NC(=O)c1ccc(/C=C/CN2Cc3ccccc3C2)cc1` [XXXa, N-(2-Amino-phenyl)-4-[3-(1,3-dihydro-isoindol-2-yl)-propenyl]-benzamide], the IC50 was 1 µM in assay [1] and 0.26 µM in assay [2]. Further, in assay [3], the EC50 came out at 4 µM.

In the case of `COc1cc(/C=C/C(=O)c2ccc(C(=O)Nc3ccccc3N)cc2)cc(OC)c1OC` [Id, N-(2-Amino-phenyl)-4-[3-(3,4,5-trimethoxy-phenyl)-acryloyl]-benzamide], the IC50 in assay [1] is 0.6 µM; in assay [4], 3 µM. The EC50 in assay [3] was found to be 3 µM.

For the compound `CC(=O)c1cc2c(cc1NC/C=C/c1ccc(C(=O)Nc3ccccc3N)cc1)OCO2` [XVf], the IC50 in assay [1] came to 1 µM; in assay [4], 3 µM. For the same compound, the concentration giving a half-maximal response (EC50) in assay [3] was 2 µM.

Consider `Nc1ccccc1NC(=O)c1ccc(/C=C/C(=O)c2ccc(N3CCOCC3)cc2)cc1` [XXIVf, N-(2-Amino-phenyl)-4-[3-(4-morpholin-4-yl-phenyl)-3-oxo-propenyl]-benzamide], for which the results for the half-inhibitory concentration (IC50) in assay [1] and in assay [4] were 0.3 µM and 10 µM, respectively. Moreover, the EC50 in assay [3] was 3 µM.

As to `Nc1ccccc1NC(=O)c1ccc(C(=O)/C=C/c2cc(F)ccc2F)cc1` [Ii, N-(2-Amino-phenyl)-4-[3-(2,5-difluoro-phenyl)-acryloyl]-benzamide], the IC50 in assay [1] stood at 1 µM; in assay [4] it was 3 µM. Moreover, in assay [3], the EC50 came out at 3 µM.

Turning to `Nc1ccccc1NC(=O)c1ccc(/C=C/C(=O)NCCc2ccccn2)cc1` [Vi, N-(2-Amino-phenyl)-4-[2-(2-pyridin-2-yl-ethylcarbamoyl)-vinyl]-benzamide], the figures for the IC50 in assay [1] and in assay [4] were 1 µM and 4 µM, respectively. Besides, in assay [3], the concentration for a half-maximal effect (EC50) is 3 µM.

Consider `CN(C/C=C/c1ccc(C(=O)Nc2ccccc2N)cc1)Cc1ccccc1` [XXXd, N-(2-Amino-phenyl)-4-[3-(benzyl-methyl-amino)-propenyl]-benzamide], for which the figures for the IC50 in assay [1] and in assay [2] were 2 µM and 0.17 µM, respectively.

As for `COc1cc(NC/C=C/c2ccc(C(=O)Nc3ccccc3N)cc2)cc(OC)c1OC` [XVb, N-(2-Amino-phenyl)-4[3-(3,4,5-trimethoxy-phenylamino)-propenyl]-benzamide], the IC50 in assay [1] turned out to be 0.1 µM; in assay [4] it was 4 µM. Besides, in assay [3], the EC50 worked out at 3 µM.

For `Nc1ccccc1NC(=O)c1ccc(C(=O)/C=C/c2ccc(C(F)(F)F)cc2)cc1` [Ih, N-(2-Amino-phenyl)-4-[3-(4-trifluoromethyl-phenyl)-acryloyl]-benzamide], the half-inhibitory concentration (IC50) came to 1 µM in assay [1] and 5 µM in assay [4]. The EC50 in assay [3] is 5 µM.

`Nc1ccccc1NC(=O)c1ccc(CCC(=O)c2ccccc2)cc1` [XXVIIa, N-(2-Amino-phenyl)-4-(3-oxo-3-phenyl-propyl)-benzamide]: the IC50 in assay [1] was 0.6 µM; in assay [4], 2 µM. In addition, the EC50 in assay [3] was 2 µM.

As for `COc1ccc(C(=O)/C=C/c2ccc(C(=O)Nc3ccccc3N)cc2)cc1` [XXIVc, N-(2-Amino-phenyl)-4-[3-(4-methoxy-phenyl)-3-oxo-propenyl]-benzamide], the half-maximal inhibitory concentration (IC50) in assay [1] came out at 0.6 µM; in assay [4], 13 µM. Moreover, the 50% effective concentration (EC50) in assay [3] was 5 µM.

Regarding `Nc1ccccc1NC(=O)c1ccc(/C=C/CN2CCN(Cc3ccccc3)CC2)cc1` [XXXb, N-(2-Amino-phenyl)-4-[3-(4-benzyl-piperazin-1-yl)-propenyl]-benzamide], the IC50 came out at 1 µM in assay [1] and 4 µM in assay [4]. The EC50 in assay [3] is 2 µM.

As to `Nc1ccccc1NC(=O)c1ccc(/C=C/CN2CCN(c3ccccn3)CC2)cc1` [XXXc, N-(2-Amino-phenyl)-4-[3-(4-pyridin-2-yl-piperazin-1-yl)-propenyl]-benzamide], the values for the IC50 in assay [1] and in assay [2] were 0.5 µM and 0.82 µM, respectively. For the same compound, the EC50 in assay [3] was determined as 2 µM.

For `Nc1ccccc1NC(=O)c1ccc(/C=C/CNCc2cccnc2)cc1` [XVh, N-(2-Amino-phenyl)-4-{3-[(pyridin-3-ylmethyl)-amino]propenyl}-benzamide], the IC50 in assay [1] was 0.7 µM; in assay [4] it was 4 µM. For the same compound, the EC50 in assay [3] was 2 µM.

As for `Nc1ccccc1NC(=O)c1ccc(/C=C/C(=O)c2ccccc2[N+](=O)[O-])cc1` [XXIVb, N-(2-Amino-phenyl)-4-[3-(2-nitro-phenyl)-3-oxo-propenyl]-benzamide], the IC50 in assay [1] was 0.1 µM; in assay [4], 8 µM. For the same compound, in assay [3], the EC50 came out at 3 µM.

Take `COc1cccc(C(=O)/C=C/c2ccc(C(=O)Nc3ccccc3N)cc2)c1` [XXIVd, N-(2-Amino-phenyl)-4-[3-(3-methoxy-phenyl)-3-oxo-propenyl]-benzamide]: the IC50 in assay [1] was 0.3 µM; in assay [4], 4 µM. Moreover, in assay [3], the EC50 is under 5 µM.

On to `COc1ccc(/C=C/C(=O)c2ccc(C(=O)Nc3ccccc3N)cc2)cc1OC1CCCC1` [Ij, N-(2-Amino-phenyl)-4-[3-(3-cyclopentyloxy-4-methoxy-phenyl)-acryloyl]-benzamide], for which the IC50 in assay [1] amounted to 0.7 µM; in assay [4] it was 4 µM. Moreover, the EC50 in assay [3] came to 5 µM.
